In a melting point compilation (Tetko et al.; mined from patent text by program, amines drawn as free bases though some values may be those of a salt):

SMILES | melting point [°C]
CCCCN(CCCC)c1ccc(C=CC2=CC(=CC=CC3=C(C#N)C(=C(C#N)C#N)OC3(C)C)CC(C)(C)C2)c(OC)c1 | 228 to 230
CCN(CC)CCCn1ccc2cc(Nc3ncnc4cc(-c5ccccc5)sc34)ccc21 | 178 to 180
CC(=O)N(C[C@H]1CN(c2ccc(N3CCC4(CC3)OCCO4)c(F)c2)C(=O)O1)C(C)=O | 200 to 202
Cc1ccc(C(O)CN2c3nc(-c4ccncc4)cc(=O)n3CCC2c2ccccc2)cc1 (stereo unspecified) | 198 to 200
Cc1ncoc1C(C)(O)c1ccsc1 (stereo unspecified) | 87 to 89
CC(C)CNc1c([N+](=O)[O-])c2nnnn2c2ccccc12 | 152 to 154
CS(=O)(=O)c1snc(OCC#CI)c1C#N | 191 to 192
CSCN(C)C(=O)Nc1ccc(Cl)c(Cl)c1 | 103
COC(=O)c1cncc(O)c1C(=O)OC | 136 to 137
CCC(C)C1C(=O)NC(=S)N1C(C)=O (stereo unspecified) | 132 to 133
Cc1nc2ccccc2n1C | 102
CCc1cc(CC)c2ccc(=O)[nH]c2n1 | 159 to 161
COc1ccccc1NC(=O)Nc1nc(Nc2ccccc2-c2ccccc2)nc(N(CCC(=O)O)Cc2ccc(C(F)(F)F)cc2)n1 | 125 to 128
CNc1nc(-c2cncc(-c3ccccc3)c2)c2cc(OC)c(OC)cc2n1 | 177 to 179
CCOC(=O)c1c(Cn2cncn2)nc2cc(OC)c(OC)cc2c1-c1ccc(O)c(OC)c1 | 176 to 178
CSc1nsc(N)c1C#N | 188 to 189
CC(C#N)=C1CCN(c2ccc(N3CC(COc4ccon4)OC3=O)cc2F)CC1 (stereo unspecified) | 137 to 138
COC(=O)c1cccc2[nH]cc(C=O)c12 | 135
CCOC(=O)c1c(-c2ccccc2C)c2cc3c(cc2[nH]c1=O)CCC3 | 296 to 298
CN1C(=O)CN=C(c2ccccc2)c2c1cc(Cl)c(N)c2Cl | 228
Cc1cc(C)c2c(c1O)C(NCc1ccccc1)=C(c1ccccc1)C2 | 214 to 215
NS(=O)(=O)c1cccc(-c2cn(-c3nc(-c4ccc(F)c(F)c4)cc(C(F)(F)F)n3)cn2)c1 | 242
COP(=O)(Nc1cc(C(C)C)ccc1N1CCOCC1)OC | 97 to 98

Continued, values first:

melting point [°C] | SMILES
202 to 203 | CN1CCN(c2ccccc2-c2ccc(C#N)c(=O)[nH]2)CC1
124 to 125 | COc1ccc(CSc2nnc(-c3ccc4occc4c3)o2)cc1
146 to 147 | CC(C)(C1=NOS(=O)N1)c1ccc2ccccc2c1 (stereo unspecified)
230 to 234 | CC(=O)NNc1ccnc2c(NC(=O)c3c(Cl)cccc3Cl)ccc(C)c12
143 to 145 | COC(=O)C1=Cc2cc(Br)ccc2NCC1
132 to 133 | O=C(Nc1ccccc1)c1ccc(F)c(Nc2ccccc2)c1
104 to 106 | CCCCCCCOc1ccc(C(=O)CCC(=O)O)cc1
221 to 222 | CC(C)n1nc(-c2sc(NC(=O)c3ccc(CN4CCCC4)cc3)nc2-c2ccccc2)ccc1=O
165 to 175 | O=C(c1ccccc1)c1ccc(-c2ccc(-c3ccc(Cl)cc3)s2)s1
179 to 181 | Cc1nn(C)c(C)c1CNC(=O)c1ccnc(N2CCN(Cc3ccc(F)cc3)C2=O)c1
> 250 | O=c1[nH]c2cscc2c(=O)n1CCN1CCN(c2ccc(F)cc2)CC1
36 to 38 | O=C(CCCCO)c1cccnc1
93 to 94 | CCOC(=O)c1ccc2nc[nH]c2c1
124 | COC(=O)c1scc(C)c1NC(=O)CC12CC3CC(CC(C3)C1)C2
135 to 139 | CN(C)Cc1nc2n(n1)-c1cccnc1N(c1ccccc1)C2
181 to 182 | COC(=O)CCc1cn(Cc2ccc(C(=O)O)cc2OC)c2cc(C(=O)NCC3CCCC3)ccc12
62 to 65 | CCOC(=O)COC(=O)c1cc(-n2nc3ccc(Cl)cn3c2=O)c(F)cc1Cl
205 to 207 | CCOC(=O)C1=CN(CC)c2cc(C#N)c(F)cc2C1
